Read-outs that look alike come from different tables or passages of the source.
How the values were obtained:
[1] = target: T1, recombinant human GST-SYK (Homo sapiens, UniProt P43405); assay: Homogeneous Time-Resolved Fluorescence (HTRF) assay for the recombinant human Syk enzyme; assay type: biochemical; settings: GST-hSYK 5 pM, ATP 25 μM
T1 construct: purchased Carna Biosciences 08-176
Method in brief: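 HTRF read-out, via Europium anti-phosphotyrosine antibody and SA-APC added with EDTA, measured phosphorylation of a 250 nM biotinylated substrate after 45 min at room temperature with 25 μM ATP and 5 mM magnesium. Enzyme was 5 pM GST-hSYK, preincubated 10 min with compound in Tris pH 7.5 buffer containing DTT.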

[2] = phase II clinical trial, allergic rhinitis; cited from earlier work
PGD2 = settings: dosed intranasally, phase I/II study, allergic rhinitis; cited from earlier work
[3] = IC50 rated in classes, read-out: rhSYK Activity

SMILES	IC50 [1, 3]	also measured
Cc1cc(Nc2nccc(C(F)(F)F)n2)cc(-c2cnc(NC3CCS(=O)(=O)C3)nc2)c1 (centres unmarked) [Example 2.16, N-(3-{2-[(1,1-dioxidotetrahydrothiophen-3-yl)amino]pyrimidin-5-yl}-5-methylphenyl)-4-(trifluoromethyl)pyrimidin-2-]	< 100 nM	
Cc1cc(Nc2nccc(C(F)(F)F)n2)cc(-c2cnc(N(C)C(=O)CC#N)nc2)c1 [Example 2.80, 2-cyano-N-methyl-N-[5-(3-methyl-5-{[4-(trifluoromethyl)pyrimidin-2-yl]amino}phenyl)pyrimidin-2-yl]acetamide]	< 100 nM	
Cc1cc(Nc2nccc(C(F)(F)F)n2)cc(-c2cnc(OC3CCC(C(=O)O)CC3)nc2)c1 (centres unmarked) [Example 3.58, 4-{[5-(3-methyl-5-{[4-(trifluoromethyl)pyrimidin-2-yl]amino}phenyl)pyrimidin-2-yl]oxy}cyclohexanecarboxylic acid]	< 100 nM	
Cc1cc(Nc2nccc(C(F)(F)F)n2)cc(-c2cnc(N(C)CCC3OCCO3)nc2)c1 [Example 2.45, N-[2-(1,3-dioxolan-2-yl)ethyl]-N-methyl-5-(3-methyl-5-{[4-(trifluoromethyl)pyrimidin-2-yl]amino}phenyl)pyrimidin-2-amine]	< 100 nM	
Cc1cc(Nc2nccc(C(F)(F)F)n2)cc(-c2cnc(OC3CCC(C(=O)O)CC3)nc2)c1 (centres unmarked) [Example 3.59, 4-{[5-(3-methyl-5-{[4-(trifluoromethyl)pyrimidin-2-yl]amino}phenyl)pyrimidin-2-yl]oxy}cyclohexanecarboxylic acid]	< 100 nM	
CCOC(=O)CCc1cc(-c2cc(C)cc(Nc3nccc(C4CC4)n3)c2)ncn1 [Example 3.53, ethyl 3-(6-{3-[(4-cyclopropylpyrimidin-2-yl)amino]-5-methylphenyl}pyrimidin-4-yl)propanoate]	100 to 1000 nM	
O=C(O)CCc1cnc(-c2cccc(Nc3nccc(C(F)(F)F)n3)c2)cn1 [Example 3.4, 3-[5-(3-{[4-(trifluoromethyl)pyrimidin-2-yl]amino}phenyl)pyrazin-2-yl]propanoic acid]	100 to 1000 nM	
Oc1cccc(Nc2ncc(F)c(Nc3cccc(O)c3)n2)c1 [Example R112]		efficacy versus placebo [2]: lack of efficacy versus placebo; clinical safety (PGD2): safe across a range of indicators; decrease in PGD2 (PGD2): statistically significant decrease in PGD2
Cc1cc(Nc2nccc(C)n2)cc(-c2cncc(CCC(=O)O)n2)c1 [Example 3.20, 3-(6-{3-methyl-5-[(4-methylpyrimidin-2-yl)amino]phenyl}pyrazin-2-yl)propanoic acid]	100 to 1000 nM	
Cc1cc(Nc2nccc(C(F)(F)F)n2)cc(-c2cncc(CCC(=O)O)n2)c1 [Example 3.18, 3-[6-(3-methyl-5-{[4-(trifluoromethyl)pyrimidin-2-yl]amino}phenyl)pyrazin-2-yl]propanoic acid]	< 100 nM	
CCN1CCN(c2ncc(-c3cc(C)cc(Nc4nccc(C(F)(F)F)n4)c3)cn2)CC1 [Example 2.55, N-{3-[2-(4-ethylpiperazin-1-yl)pyrimidin-5-yl]-5-methylphenyl}-4-{trifluoromethyl)pyrimidin-2-amine]	< 100 nM	
Cc1cc(Nc2nccc(C(F)F)n2)cc(-c2cnc([C@H](C)[C@H]3CC[C@H](C(=O)O)[C@H](C)C3)nc2)c1 (single isomer, unassigned) [Example 7.5]	< 100 nM	IC50 ([1]; values in text, read-out: IC50): 0.8 nM
CCOC(=O)CCc1cnc(-c2cccc(Nc3nccc(C(F)(F)F)n3)c2)cn1 [Example 3.3, ethyl 3-[5-(3-{[4-(trifluoromethyl)pyrimidin-2-yl]amino}phenyl)pyrazin-2-yl]propanoate]	1000 to 10000 nM	
Cc1cc(Nc2nccc(C(F)(F)F)n2)cc(-c2cnc(N(C)CCO)nc2)c1 [Example 2.30, 2-{methyl[5-(3-methyl-5-{[4-(trifluoromethyl)pyrimidin-2-yl]amino}phenyl)pyrimidin-2-yl]amino}ethanol]	< 100 nM	
Cc1cc(Nc2nccc(C(F)(F)F)n2)cc(-c2ccc(-c3cccc(C(=O)O)c3)nn2)c1 [Example 3.32, 3-[6-(3-methyl-5-{[4-(trifluoromethyl)pyrimidin-2-yl]amino}phenyl)pyridazin-3-yl]benzoic acid]	< 100 nM	
COCC1CCN(c2ncc(-c3cc(C)cc(Nc4nccc(C(F)(F)F)n4)c3)cn2)C1 (centres unmarked) [Example 2.66, N-(3-{2-[3-(methoxymethyl)pyrrolidin-1-yl]pyrimidin-5-yl}-5-methylphenyl)-4-(trifluoromethyl)pyrimidin-2-amine]	100 to 1000 nM	
Cc1cc(Nc2nccc(C(F)(F)F)n2)cc(-c2cnc(NCC(O)CC(=O)O)nc2)c1 (centres unmarked) [Example 2.61]	< 100 nM	
Cc1cc(Nc2nccc(C3CC3)n2)cc(-c2cnc(CCC(=O)O)nc2)c1 [Example 3.57, 3-(5-{3-[(4-cyclopropylpyrimidin-2-yl)amino]-5-methylphenyl}pyrimidin-2-yl)propanoic acid]	< 100 nM	
Cc1cc(Nc2nccc(C(F)(F)F)n2)cc(-c2cnc(CCC(=O)O)nc2)c1 [Example 3.62, 3-[5-(3-methyl-5-{[4-(trifluoromethyl)pyrimidin-2-yl]amino}phenyl)pyrimidin-2-yl]propanoic acid]	< 100 nM	
CCOC(=O)CCc1cncc(-c2cc(C)cc(Nc3nccc(C(F)(F)F)n3)c2)n1 [Example 3.17, ethyl 3-[6-(3-methyl-5-{[4-(trifluoromethyl)pyrimidin-2-yl]amino}phenyl)pyrazin-2-yl]propanoate]	100 to 1000 nM	
